Data published in patent US12522597B2, “Methods and compositions for modulating splicing” (Skyhawk Therapeutics, Inc., priority 2019, dated 2026).
Like-named read-outs stand apart in the source and are kept apart here.

Assays:
[1] = system: Huntingtin (HTT) transcripts; experiment: Quantitative splicing assay (HTT), qPCR; type: cell-based; conditions: Homo sapiens, GM04724 (CAG 70/20) Huntington's disease patient lymphoblasts, 24 h
Description: GM04724 (CAG 70/20) Huntington's disease patient lymphoblasts (Coriell) are plated in 96-wel v-bottom plates at 50,000 cells/well. Immediately after plating, cells are dosed with compound for 24 h at concentrations ranging from 2.5 uM to 0.15 nM (0.1% DMSO). Treated cells are lysed and cDNA synthesized using the Fast Advanced Cells-to-Ct kit (Thermofisher A35378) according to the manufacturer's instructions. 2 uL of each cDNA are used in qPCR reactions to confirm the compound-induced inclusion of a cryptic exon within intron 49 of the Huntingtin (HTT) transcripts. The qPCR reactions are prepared in 384-well plates in 10 uL volume, using TaqMan™ Fast Advanced Master Mix [ThermoFisher; 4444965] with primers and probes shown in the table below. Reactions are run in a Quant Studio 6 qPCR instrument with default settings.

MDR1 = experiment: MDCK-MDR1 permeability assay (BBB penetration potential); type: in vitro ADME; conditions: dog; for efflux ratio at 120 min, 5 μM: MDCK-MDR1, pH 7.4, MDCK-MDR1: Efflux; for Papp A→B at 120 min, 5 μM: MDCK-MDR1, pH 7.4, MDCK-MDR1: Papp A-B; for Papp B→A at 120 min, 5 μM: MDCK-MDR1, pH 7.4, MDCK-MDR1: Papp B-A
Description: (§1) Each determination is performed in duplicate. […] Analytical conditions are outlined below.

[2] = system: MDR1-MDCK cell monolayers; experiment: as above; type: in vitro ADME; conditions: dog, MDCK-MDR1, 120 min, 5 μM, pH 7.4
Description: as §1

mHTT protein = mHTT protein assay (2B7-MW1, Mesoscale Discovery); type: cell-based, human; conditions: GM04724 (CAG 70/20) Huntington's disease patient lymphoblast cells, 48 hours, 2B7-MW1 MSD; read-out: HTT Potency - Protein EC50 mHTT (average)
Outline: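 GM04724 Huntington's patient lymphoblasts (CAG 70/20) were treated for 48 h at 10 μM to 0.6 nM. mHTT was quantified by 2B7-MW1 MSD immunoassay, whose signal depends on polyQ expansion and HTT fragment size. Viability was run on a parallel plate by CellTiter-Glo.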

[3] = qPCR HTTex49_50, read-out: HTT Potency - Splicing: E49-50 EC50 (average)
[4] = qPCR cryptic exon 49b inclusion, read-out: HTT Potency - Splicing: E49b EC50 (average)

Row | Compound | EC50 [1, 3] | EC50 [1, 4] | efflux ratio at 120 min, 5 μM (MDR1) | Papp A→B at 120 min, 5 μM (MDR1) | Papp B→A at 120 min, 5 μM (MDR1) | MDCK-MDR1: % Recov A-B [2] | MDCK-MDR1: % Recov B-A [2] | EC50 (mHTT protein)
1 | Cn1cc(-c2ccc(-c3ccc(O[C@@H]4C[C@H]5CCC[C@H](N5)[C@@H]4F)nn3)c(O)c2)cn1 (single isomer, unassigned) [1-ENT1] | 16 to 50 nM | 16 to 50 nM | 6 | 6.16 ×10⁻⁶ cm/s | 37.9 ×10⁻⁶ cm/s | 85% | 84% | 0.01 to 15 nM
2 | Cn1cc(-c2ccc(-c3ccc(O[C@H]4C[C@@H]5CCC[C@@H](N5)[C@H]4F)nn3)c(O)c2)cn1 (single isomer, unassigned) [1-ENT2] | 16 to 50 nM | 16 to 50 nM | 6 | 6.05 ×10⁻⁶ cm/s | 33.7 ×10⁻⁶ cm/s | 76% | 83% | 0.01 to 15 nM
3 | C[C@]12CC[C@](C)(N1)[C@H](F)[C@H](Oc1ccc(-c3ccc(-c4cn[nH]c4)cc3O)nn1)C2 (single isomer, unassigned) [2-ENT1] | 0.01 to 15 nM | 0.01 to 15 nM | 12 | 4.15 ×10⁻⁶ cm/s | 50.7 ×10⁻⁶ cm/s | 77% | 89% | 0.01 to 15 nM
4 | C[C@@]12CC[C@@](C)(N1)[C@@H](F)[C@@H](Oc1ccc(-c3ccc(-c4cn[nH]c4)cc3O)nn1)C2 (single isomer, unassigned) [2-ENT2] | 0.01 to 15 nM | 0.01 to 15 nM | 3 | 14.5 ×10⁻⁶ cm/s | 46.4 ×10⁻⁶ cm/s | 90% | 87% | 0.01 to 15 nM
5 | Oc1cc(-n2cccn2)ccc1-c1ccc(O[C@H]2C[C@@H]3CC[C@@H](N3)[C@H]2F)nn1 (single isomer, unassigned) [35-ENT2] | 101 to 500 nM | 101 to 500 nM | 4 | 6.25 ×10⁻⁶ cm/s | 24 ×10⁻⁶ cm/s | 62% | 68% | 51 to 100 nM
6 | Oc1cc(-c2cn[nH]c2)ccc1-c1ccc(O[C@H]2C[C@@H]3CCC[C@@H](N3)[C@H]2F)nn1 (single isomer, unassigned) [40-ENT1] | 0.01 to 15 nM | 0.01 to 15 nM | 19 | 2.67 ×10⁻⁶ cm/s | 49.9 ×10⁻⁶ cm/s | 83% | 85% | 0.01 to 15 nM
7 | Oc1cc(-c2cn[nH]c2)ccc1-c1ccc(O[C@@H]2C[C@H]3CCC[C@H](N3)[C@@H]2F)nn1 (single isomer, unassigned) [40-ENT2] | 0.01 to 15 nM | 0.01 to 15 nM | 17 | 2.47 ×10⁻⁶ cm/s | 41.6 ×10⁻⁶ cm/s | 80% | 83% | 0.01 to 15 nM
8 | Oc1cc(-c2cn[nH]c2)ccc1-c1ccc(O[C@H]2C[C@@H]3CCC[C@@H](N3)[C@@H]2F)nn1 (single isomer, unassigned) [41-ENT1] | 0.01 to 15 nM | 0.01 to 15 nM | 8 | 4.33 ×10⁻⁶ cm/s | 34.7 ×10⁻⁶ cm/s | 71% | 86% | 0.01 to 15 nM
9 | Oc1cc(-c2cn[nH]c2)ccc1-c1ccc(O[C@H]2C[C@@H]3CC[C@@H](N3)[C@H]2F)nn1 (single isomer, unassigned) [42-ENT1] | 0.01 to 15 nM | 0.01 to 15 nM | 12 | 3.39 ×10⁻⁶ cm/s | 42.4 ×10⁻⁶ cm/s | 75% | 84% | 0.01 to 15 nM
10 | Oc1cc(-c2cn[nH]c2)ccc1-c1ccc(O[C@@H]2C[C@H]3CC[C@H](N3)[C@@H]2F)nn1 (single isomer, unassigned) [42-ENT2] | 0.01 to 15 nM | 0.01 to 15 nM | 12 | 3.2 ×10⁻⁶ cm/s | 38.5 ×10⁻⁶ cm/s | 85% | 86% | 0.01 to 15 nM
11 | Oc1cc(-c2cn[nH]c2)ccc1-c1ccc(O[C@H]2C[C@@H]3CC[C@@H](N3)[C@@H]2F)nn1 (single isomer, unassigned) [43-ENT1] | 16 to 50 nM | 16 to 50 nM | 7 | 7.44 ×10⁻⁶ cm/s | 48.9 ×10⁻⁶ cm/s | 76% | 79% | 0.01 to 15 nM
12 | Oc1cc(-c2cn[nH]c2)ccc1-c1ccc(O[C@@H]2C[C@H]3CC[C@H](N3)[C@H]2F)nn1 (single isomer, unassigned) [43-ENT2] | 16 to 50 nM | 16 to 50 nM | 9 | 6.27 ×10⁻⁶ cm/s | 58.7 ×10⁻⁶ cm/s | 83% | 84% | 0.01 to 15 nM
13 | Oc1cc(-c2cn[nH]c2)ccc1-c1ccc(O[C@H]2C[C@@H]3CC(F)(F)[C@H](C2)N3)nn1 (single isomer, unassigned) [46-ENT1] | 501 to 10000 nM | 501 to 10000 nM | 3 | 18.3 ×10⁻⁶ cm/s | 47 ×10⁻⁶ cm/s | 70% | 88% | 501 to 10000 nM
14 | Oc1cc(-c2cn[nH]c2)ccc1-c1ccc(O[C@@H]2C[C@H]3CC(F)(F)[C@@H](C2)N3)nn1 (single isomer, unassigned) [46-ENT2] | 101 to 500 nM | 101 to 500 nM | 3 | 14.2 ×10⁻⁶ cm/s | 43.2 ×10⁻⁶ cm/s | 72% | 83% | 101 to 500 nM
15 | Cn1cc(-c2ccc(-c3ccc(O[C@@H]4C[C@H]5CCC[C@H](N5)[C@H]4F)nn3)c(O)c2)cn1 (single isomer, unassigned) [49-ENT1] | 51 to 100 nM | 51 to 100 nM | 2 | 5.36 ×10⁻⁶ cm/s | 11.8 ×10⁻⁶ cm/s | 49% | 82% | 51 to 100 nM
16 | Cn1cc(-c2ccc(-c3ccc(O[C@H]4C[C@@H]5CCC[C@@H](N5)[C@@H]4F)nn3)c(O)c2)cn1 (single isomer, unassigned) [49-ENT2] | 16 to 50 nM | 0.01 to 15 nM | 3 | 4.62 ×10⁻⁶ cm/s | 15.4 ×10⁻⁶ cm/s | 46% | 75% | 16 to 50 nM
17 | O=c1cc(-c2ccc(-c3ccc(O[C@@H]4C[C@H]5CCC[C@H](N5)[C@@H]4F)nn3)c(O)c2)cc[nH]1 (single isomer, unassigned) [53-ENT1] | 101 to 500 nM | 101 to 500 nM | 103 | 0.22 ×10⁻⁶ cm/s | 22.2 ×10⁻⁶ cm/s | 91% | 90% | 101 to 500 nM
18 | O=c1cc(-c2ccc(-c3ccc(O[C@H]4C[C@@H]5CCC[C@@H](N5)[C@H]4F)nn3)c(O)c2)cc[nH]1 (single isomer, unassigned) [53-ENT2] | 101 to 500 nM | 101 to 500 nM | 106 | 0.22 ×10⁻⁶ cm/s | 23.2 ×10⁻⁶ cm/s | 104% | 103% | 101 to 500 nM
19 | Cn1ccc(-c2ccc(-c3ccc(O[C@@H]4C[C@H]5CCC[C@H](N5)[C@@H]4F)nn3)c(O)c2)cc1=O (single isomer, unassigned) [54-ENT1] | 16 to 50 nM | 16 to 50 nM | 57 | 1.1 ×10⁻⁶ cm/s | 63 ×10⁻⁶ cm/s | 94% | 105% | 0.01 to 15 nM
20 | Cn1ccc(-c2ccc(-c3ccc(O[C@H]4C[C@@H]5CCC[C@@H](N5)[C@H]4F)nn3)c(O)c2)cc1=O (single isomer, unassigned) [54-ENT2] | 16 to 50 nM | 16 to 50 nM | 34 | 1.8 ×10⁻⁶ cm/s | 61.9 ×10⁻⁶ cm/s | 101% | 107% | 16 to 50 nM
21 | Oc1cc(-c2cn[nH]c2)c(F)cc1-c1ccc(O[C@@H]2C[C@H]3CCC[C@H](N3)[C@@H]2F)nn1 (single isomer, unassigned) [56-ENT1] | 0.01 to 15 nM | 0.01 to 15 nM | 15 | 2.63 ×10⁻⁶ cm/s | 39 ×10⁻⁶ cm/s | 55% | 74% | 0.01 to 15 nM
